Ki data for eight compounds are collected here from patent US20210395249A1, “NEW ALKOXYAMINOPYRIDINE DERIVATIVES FOR TREATING PAIN AND PAIN RELATED CONDITIONS” (ESTEVE PHARMACEUTICALS, S.A., priority 2018, published 2021).

Test [1] concerns the target Human α2δ-1 subunit of Cav2.2 calcium channel (Homo sapiens, UniProt P54289). Nature of the test: Binding assay to human α2δ-1 subunit of Cav2.2 calcium channel ([3H]-Gabapentin). As to conditions: human α2δ-1 enriched membranes, [3H]-Gabapentin 15 nM; read-out: Ki(nM) alpha2delta Hum. How it is done:
Binding Assay to Human α2δ-1 Subunit of Cav2.2 Calcium Channel
Human α2δ-1 enriched membranes (2.5 μg) were incubated with 15 nM of radiolabeled [3H]-Gabapentin in assay buffer containing Hepes-KOH 10 mM, pH 7.4. NSB (non-specific binding) was measured by adding 10 μM pregabalin. The binding of the test compound was measured at either one concentration (% inhibition at 1 or 10 μM) or five different concentrations to determine affinity values (Ki). After 60 min incubation at 27° C., binding reaction was terminated by filtering through Multiscreen GF/C (Millipore) presoaked in 0.5% polyethyleneimine in Vacuum Manifold Station, followed by 3 washes with ice-cold filtration buffer containing 50 mM Tris-HCl, pH 7.4. Filter plates were dried at 60° C. for 1 hour and 30 μl of scintillation cocktail were added to each well before radioactivity reading. Readings were performed in a Trilux 1460 Microbeta radioactive counter (Perkin Elmer).

Test [2] deals with Human norepinephrine transporter (NET) (Homo sapiens, UniProt P23975). Nature of the test: Binding assay to human norepinephrine transporter (NET) ([3H]-Nisoxetin). As to conditions: human NET enriched membranes, [3H]-Nisoxetin 5 nM; read-out: Ki(nM) NET Hum. How it is done: Binding Assay to Human Norepinephrine Transporter (NET)
Human norepinephrine transporter (NET) enriched membranes (5 μg) were incubated with 5 nM of radiolabeled [3H]-Nisoxetin in assay buffer containing 50 mM Tris-HCl, 120 mM NaCl, 5 mM KCl, pH 7.4. NSB (non specific binding) was measured by adding 10 μM of desipramine. The binding of the test compound was measured at either one concentration (% inhibition at 1 or 10 μM) or five different concentrations to determine affinity values (Ki). After 60 min incubation at 4° C., binding reaction was terminated by filtering through Multiscreen GF/C (Millipore) presoaked in 0.5% polyethyleneimine in Vacuum Manifold Station, followed by 3 washes with ice-cold filtration buffer containing 50 mM Tris-HCl, 0.9% NaCl, pH 7.4. Filter plates were dried at 60° C. for 1 hour and 30 μl of scintillation cocktail were added to each well before radioactivity reading. Readings were performed in a Trilux 1450 Microbeta radioactive counter (Perkin Elmer).

Human α2δ-1 subunit of Cav2.2 calcium channel, sequence (P54289 25-1103): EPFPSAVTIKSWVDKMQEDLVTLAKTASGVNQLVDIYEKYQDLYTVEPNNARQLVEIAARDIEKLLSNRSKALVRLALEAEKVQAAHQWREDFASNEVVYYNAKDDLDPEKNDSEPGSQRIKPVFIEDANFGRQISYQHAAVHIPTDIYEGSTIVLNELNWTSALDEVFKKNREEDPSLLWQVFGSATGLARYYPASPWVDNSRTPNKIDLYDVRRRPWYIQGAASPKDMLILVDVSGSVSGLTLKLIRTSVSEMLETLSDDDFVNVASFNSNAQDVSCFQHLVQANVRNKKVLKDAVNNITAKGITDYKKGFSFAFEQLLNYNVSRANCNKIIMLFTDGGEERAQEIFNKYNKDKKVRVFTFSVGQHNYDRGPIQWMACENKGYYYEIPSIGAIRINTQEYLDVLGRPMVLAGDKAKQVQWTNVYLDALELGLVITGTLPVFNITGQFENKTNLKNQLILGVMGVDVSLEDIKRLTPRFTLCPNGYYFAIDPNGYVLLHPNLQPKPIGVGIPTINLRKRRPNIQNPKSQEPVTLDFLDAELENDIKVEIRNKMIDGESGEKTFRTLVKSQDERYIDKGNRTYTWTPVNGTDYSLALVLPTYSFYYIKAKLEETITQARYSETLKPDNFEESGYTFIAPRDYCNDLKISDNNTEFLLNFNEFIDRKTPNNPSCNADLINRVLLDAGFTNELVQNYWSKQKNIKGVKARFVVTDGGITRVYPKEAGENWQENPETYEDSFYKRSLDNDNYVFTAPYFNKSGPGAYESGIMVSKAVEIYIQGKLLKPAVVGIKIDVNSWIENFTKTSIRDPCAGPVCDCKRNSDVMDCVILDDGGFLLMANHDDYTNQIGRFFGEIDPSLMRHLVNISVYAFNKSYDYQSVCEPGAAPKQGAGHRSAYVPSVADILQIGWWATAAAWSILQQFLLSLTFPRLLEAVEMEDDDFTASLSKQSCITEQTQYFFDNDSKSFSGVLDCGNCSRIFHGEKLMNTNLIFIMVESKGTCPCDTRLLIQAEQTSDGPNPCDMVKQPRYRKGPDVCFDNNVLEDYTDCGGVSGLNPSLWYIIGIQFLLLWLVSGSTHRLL
Human norepinephrine transporter (NET), sequence (P23975 whole entry): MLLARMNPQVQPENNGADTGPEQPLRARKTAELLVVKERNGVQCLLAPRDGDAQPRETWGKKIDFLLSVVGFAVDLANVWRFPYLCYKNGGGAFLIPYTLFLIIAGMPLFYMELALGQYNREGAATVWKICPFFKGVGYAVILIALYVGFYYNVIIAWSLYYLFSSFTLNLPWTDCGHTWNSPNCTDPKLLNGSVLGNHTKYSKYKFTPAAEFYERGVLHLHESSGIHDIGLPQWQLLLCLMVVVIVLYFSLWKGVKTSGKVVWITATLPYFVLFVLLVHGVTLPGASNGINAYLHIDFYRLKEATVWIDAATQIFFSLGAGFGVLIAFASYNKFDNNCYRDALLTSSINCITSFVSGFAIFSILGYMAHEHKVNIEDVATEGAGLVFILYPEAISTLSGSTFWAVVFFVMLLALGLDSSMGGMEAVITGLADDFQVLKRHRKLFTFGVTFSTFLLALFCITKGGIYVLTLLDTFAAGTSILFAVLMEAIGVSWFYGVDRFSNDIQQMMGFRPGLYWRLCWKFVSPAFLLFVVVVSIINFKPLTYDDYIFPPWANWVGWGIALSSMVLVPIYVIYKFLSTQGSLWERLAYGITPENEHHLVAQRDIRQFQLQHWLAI

In the case of `CNCC[C@H](Oc1cnc(CN2CCN(C)c3ncccc3C2=O)c(F)c1)c1ccccc1` [Example 1, (S)-4-((3-Fluoro-5-(3-(methylamino)-1-phenylpropoxy)pyridin-2-yl)methyl)-1-methyl-1,2,3,4-tetrahydro-5H-pyrido[2,3-e][1,4]diazepin-5-one], the Ki in test [1] and in test [2] was less than 100 nM each time.

As to `CNCC[C@H](Oc1cnc(CN2CCN(C)c3ncc(F)cc3C2=O)c(F)c1)c1cccc(F)c1` [Example 2, (S)-7-fluoro-4-((3-fluoro-5-(1-(3-fluorophenyl)-3-(methylamino)propoxy)pyridin-2-yl)methyl)-1-methyl-1,2,3,4-tetrahydro-5H-pyrido[2,3-e][1,4]diazepin-5-one], the Ki in test [1] is 100 to 500 nM; in test [2], less than 100 nM.

As to `CNCC[C@H](Oc1cnc(CN2CCN(C)c3nc(N)ccc3C2=O)c(F)c1)c1cccc(F)c1` [Example 3, (S)-8-amino-4-((3-fluoro-5-(1-(3-fluorophenyl)-3-(methylamino)propoxy)pyridin-2-yl)methyl)-1-methyl-1,2,3,4-tetrahydro-5H-pyrido[2,3-e][1,4]diazepin-5-one], the Ki in test [1] and in test [2] was less than 100 nM in each case.

As to `CCNc1ccc2c(n1)N(C)CCN(Cc1ncc(O[C@@H](CCNC)c3cccc(F)c3)cc1F)C2=O` [Example 4, (S)-8-(ethylamino)-4-((3-fluoro-5-(1-(3-fluorophenyl)-3-(methylamino)propoxy)pyridin-2-yl)methyl)-1-methyl-1,2,3,4-tetrahydro-5H-pyrido[2,3-e][1,4]diazepin-5-one], the Ki in test [1] and in test [2] was less than 100 nM each time.

As to `CNCC[C@H](Oc1cnc(CN2CCN(C)c3ncccc3C2=O)c(Cl)c1)c1cccc(F)c1` [Example 5, (S)-4-((3-chloro-5-(1-(3-fluorophenyl)-3-(methylamino)propoxy)pyridin-2-yl)methyl)-1-methyl-1,2,3,4-tetrahydro-5H-pyrido[2,3-e][1,4]diazapin-5-one], the Ki in test [1] and in test [2] was less than 100 nM each time.

For the compound `CNCC[C@H](Oc1cnc(CN2CCN(C)c3cnc(OC)cc3C2=O)c(F)c1)c1cccc(F)c1` [Example 6, (S)-4-((3-fluoro-5-(1-(3-fluorophenyl)-3-(methylamino)propoxy)pyridin-2-yl)methyl)-7-methoxy-1-methyl-1,2,3,4-tetrahydro-5H-pyrido[3,4-e][1,4]diazepin-5-one], the Ki in test [1] and in test [2] was less than 100 nM throughout.

Turning to `CNCC[C@H](Oc1cnc(CN2CCN(C)c3ncccc3C2=O)c(F)c1)c1cccc(F)c1` [Example 7, (S)-4-((3-fluoro-5-(1-(3-fluorophenyl)-3-(methylamino)propoxy)pyridin-2-yl)methyl)-1-methyl-1,2,3,4-tetrahydro-5H-pyrido[2,3-e][1,4]diazepin-5-one], the Ki in test [1] is 100 to 500 nM; in test [2], less than 100 nM.

Regarding `CNCC[C@H](Oc1cnc(CN2CCN(C)c3ncccc3C2=O)c(F)c1)c1cccs1` [Example 8, (S)-4-((3-Fluoro-5-(3-(methylamino)-1-(thiophen-2-yl)propoxy)pyridin-2-yl)methyl)-1-methyl-1,2,3,4-tetrahydro-5H-pyrido[2,3-e][1,4]diazepin-5-one], the Ki in test [1] was 100 to 500 nM; in test [2], less than 100 nM.
